Source: patent US10138260B2, “Compounds of phosphinanes and azaphosphinanes, a process for their preparation and pharmaceutical compositions containing them” (LES LABORATOIRES SERVIER, priority 2016, dated 2018)

Target: T1, TAFIa (Homo sapiens, UniProt Q96IY4)
T1 sequence (Q96IY4 115-423): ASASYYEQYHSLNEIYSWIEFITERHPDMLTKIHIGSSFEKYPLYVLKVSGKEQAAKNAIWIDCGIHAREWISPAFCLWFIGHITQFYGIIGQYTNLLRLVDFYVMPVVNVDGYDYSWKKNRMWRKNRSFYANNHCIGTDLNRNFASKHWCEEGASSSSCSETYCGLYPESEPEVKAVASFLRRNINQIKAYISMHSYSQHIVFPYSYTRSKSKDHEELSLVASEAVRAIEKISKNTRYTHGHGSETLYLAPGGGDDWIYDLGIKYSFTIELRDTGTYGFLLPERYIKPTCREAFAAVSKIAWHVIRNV
Test: Inhibition of TAFIa (hippuryl-Arg test)
Assay type: biochemical
Details: TAFIa 2 nM, hippuryl-arginine 5 mM, 45 minutes, relative to control containing the carrier; for inhibition at 0.01 µM: compound at 10 nM; for inhibition at 0.02 µM: compound at 20 nM
Procedure: Human TAFI (4 nM) is incubated with human thrombin (10 nM) and human thrombomodulin (5 nM) in the presence of calcium (10 mM). After incubation for 20 minutes, the activation reaction is stopped by addition of PPACK (1 μM final), an irreversible thrombin inhibitor.
The reactions take place in Hepes buffer (25 mM Hepes, 137 mM NaCl, 3.5 mM KCl)+0.1% bovine albumin, pH 7.4 at 28° C. and with stirring.
The test compound is added to the solution of TAFIa (2 nM) and incubated for 45 minutes in the presence of hippuryl-arginine (5 mM). The reaction is stopped by addition of hydrochloric acid (1M) neutralised subsequently with sodium hydroxide (1M), and then the mixture is buffered with disodium hydroxyphosphate (1M pH 7.4). […] The reaction mixture is stirred (vortex) and then centrifuged. The supernatant is transferred to a 96-well microplate, and the absorbance is measured using a spectrophotometer at 405 nm (Spectramax plus, Molecular Devices).
The OD value of a well containing the reagents without TAFI is subtracted from all the OD values measured. The percentage inhibition of TAFIa at a given concentration of the test compound is determined by means of the following formula: % inhibition=100−[(OD compound×100)/OD carrier]
The compounds are evaluated at 10 nM and 20 nM under the experimental conditions described above and the results are expressed as the percentage inhibition relative to a control containing the carrier in the absence of compound.

inhibition at 0.01 µM [%]	inhibition at 0.02 µM [%]	SMILES
60	73	NCCCCC1(C(=O)O)CN(Cc2ccccc2-c2cccc(-c3ccccc3)c2)CCP1(=O)O (centres unmarked) [Example 49, 3-(4-AMINOBUTYL)-4-HYDROXY-4-OXO-1-[[2-(3-PHENYLPHENYL)PHENYL]-METHYL]-1,4-AZAPHOSPHINANE-3-CARBOXYLIC ACID]
37	68	NCCCCC1(C(=O)O)CN(Cc2ccc(F)cc2-c2ccc(O)cc2)CCP1(=O)O (centres unmarked) [Example 104, 3-(4-AMINOBUTYL)-1-[[4-FLUORO-2-(4-HYDROXYPHENYL)PHENYL]METHYL]-4-HYDROXY-4-OXO-1,4-AZAPHOSPHINANE-3-CARBOXYLIC ACID]
25	29	NCCCCC1(C(=O)O)CN(Cc2ccccc2-c2nccs2)CCP1(=O)O (centres unmarked) [Example 108, 3-(4-AMINOBUTYL)-4-HYDROXY-4-OXO-1-[[2-(1,3-THIAZOL-2-YL)PHENYL]-METHYL]-1,4-AZAPHOSPHINANE-3-CARBOXYLIC ACID]
68	90	NCCCCC1(C(=O)O)CN(Cc2ccc(Cl)cc2-c2ccc(Cl)cc2)CCP1(=O)O (centres unmarked) [Example 113, 3-(4-AMINOBUTYL)-1-[[4-CHLORO-2-(4-CHLOROPHENYL)PHENYL]METHYL]-4-HYDROXY-4-OXO-1,4-AZAPHOSPHINANE-3-CARBOXYLIC ACID]
42	51	NCCCCC1(C(=O)O)CN(Cc2ccccc2-c2ccccc2-c2ccccc2)CCP1(=O)O (centres unmarked) [Example 114, 3-(4-AMINOBUTYL)-4-HYDROXY-4-OXO-1-[[2-(2-PHENYLPHENYL)PHENYL]-METHYL]-1,4-AZAPHOSPHINANE-3-CARBOXYLIC ACID]
66	87	NCCCCC1(C(=O)O)CN(Cc2ccccc2-c2ccc3c(c2)OCO3)CCP1(=O)O (centres unmarked) [Example 164, 3-(4-AMINOBUTYL)-1-[[2-(1,3-BENZODIOXOL-5-YL)PHENYL]METHYL]-4-HYDROXY-4-OXO-1,4-AZAPHOSPHINANE-3-CARBOXYLIC ACID]
66	93	NCCCCC1(C(=O)O)CN(Cc2ccccc2-c2ccc(=O)[nH]c2)CCP1(=O)O (centres unmarked) [Example 166, 3-(4-AMINOBUTYL)-4-HYDROXY-4-OXO-1-[[2-(6-OXO-1H-PYRIDIN-3-YL)PHENYL]METHYL]-1,4-AZAPHOSPHINANE-3-CARBOXYLIC ACID]
61	67	NCCCCC1(C(=O)O)CN(Cc2ccccc2-c2cnc3ccccn23)CCP1(=O)O (centres unmarked) [Example 167, 3-(4-AMINOBUTYL)-4-HYDROXY-1-[(2-IMIDAZO[1,2-A]PYRIDIN-3-YLPHENYL)-METHYL]-4-OXO-1,4-AZAPHOSPHINANE-3-CARBOXYLIC ACID]
74	83	COc1ccc(-c2cc(F)ccc2CN2CCP(=O)(O)[C@](CCCCN)(C(=O)O)C2)cc1OC [Example 179, (3S)-3-(4-AMINOBUTYL)-1-[[2-(3,4-DIMETHOXYPHENYL)-4-FLUOROPHENYL]-METHYL]-4-HYDROXY-4-OXO-1,4-AZAPHOSPHINANE-3-CARBOXYLIC ACID]
54	73	Cc1ccc(-c2cc(F)ccc2CN2CCP(=O)(O)[C@](CCCCN)(C(=O)O)C2)cc1 [Example 180, (3S)-3-(4-AMINOBUTYL)-1-[[4-FLUORO-2-(4-METHYLPHENYL)PHENYL]-METHYL]-4-HYDROXY-4-OXO-1,4-AZAPHOSPHINANE-3-CARBOXYLIC ACID]
73	88	NCCCC[C@@]1(C(=O)O)CN(Cc2ccccc2-c2cccs2)CCP1(=O)O [Example 183, (3S)-3-(4-AMINOBUTYL)-4-HYDROXY-4-OXO-1-[(2-THIOPHEN-2-YLPHENYL)-METHYL]-1,4-AZAPHOSPHINANE-3-CARBOXYLIC ACID]
69	85	COc1cccc(-c2cc(F)ccc2CN2CCP(=O)(O)[C@](CCCCN)(C(=O)O)C2)c1 [Example 185, (3S)-3-(4-AMINOBUTYL)-1-[[4-FLUORO-2-(3-METHOXYPHENYL)PHENYL]-METHYL]-4-HYDROXY-4-OXO-1,4-AZAPHOSPHINANE-3-CARBOXYLIC ACID]
74	97	COc1ccc(-c2cc(F)ccc2CN2CCP(=O)(O)[C@](CCCCN)(C(=O)O)C2)cc1 [Example 187, (3S)-3-(4-AMINOBUTYL)-1-[[4-FLUORO-2-(4-METHOXYPHENYL)PHENYL]-METHYL]-4-HYDROXY-4-OXO-1,4-AZAPHOSPHINANE-3-CARBOXYLIC ACID]
71	78	NCCCC[C@@]1(C(=O)O)CN(Cc2ccc(F)cc2-c2ccc(F)cc2)CCP1(=O)O [Example 189, (3S)-3-(4-AMINOBUTYL)-1-[[4-FLUORO-2-(4-FLUOROPHENYL)PHENYL]METHYL]-4-HYDROXY-4-OXO-1,4-AZAPHOSPHINANE-3-CARBOXYLIC ACID]
88	95	NCCCC[C@@]1(C(=O)O)CN(Cc2ccc(F)cc2-c2cccnc2)CCP1(=O)O [Example 190, (3S)-3-(4-AMINOBUTYL)-1-[(4-FLUORO-2-PYRIDIN-3-YLPHENYL)METHYL]-4-HYDROXY-4-OXO-1,4-AZAPHOSPHINANE-3-CARBOXYLIC ACID]

Second part, the compound before the results:

SMILES	inhibition at 0.01 µM [%]	inhibition at 0.02 µM [%]
NCCCCC1(C(=O)O)CN(Cc2ccccc2-c2cc(Cl)ccc2Cl)CCP1(=O)O (centres unmarked) [Example 48, 3-(4-AMINOBUTYL)-1-[[2-(2,5-DICHLOROPHENYL)PHENYL]METHYL]-4-HYDROXY-4-OXO-1,4-AZAPHOSPHINANE-3-CARBOXYLIC ACID]	45	54
NCCCCC1(C(=O)O)CN(Cc2ccccc2-c2ccc3ccccc3c2)CCP1(=O)O (centres unmarked) [Example 50, 3-(4-AMINOBUTYL)-4-HYDROXY-1-[(2-NAPHTHALEN-2-YLPHENYL)METHYL]-4-OXO-1,4-AZAPHOSPHINANE-3-CARBOXYLIC ACID]	53	66
NCCCCC1(C(=O)O)CN(Cc2ccsc2-c2ccccc2)CCP1(=O)O (centres unmarked) [Example 105, 3-(4-AMINOBUTYL)-4-HYDROXY-4-OXO-1-[(2-PHENYLTHIOPHEN-3-YL)METHYL]-1,4-AZAPHOSPHINANE-3-CARBOXYLIC ACID]	44	66
NCCCCC1(C(=O)O)CN(Cc2ccccc2-c2cccc3ccccc23)CCP1(=O)O (centres unmarked) [Example 109, 3-(4-AMINOBUTYL)-4-HYDROXY-1-[(2-NAPHTHALEN-1-YLPHENYL)METHYL]-4-OXO-1,4-AZAPHOSPHINANE-3-CARBOXYLIC ACID]	58	71
COc1ccc(-c2ccccc2CN2CCP(=O)(O)C(CCCCN)(C(=O)O)C2)cn1 (centres unmarked) [Example 165, 3-(4-AMINOBUTYL)-4-HYDROXY-1-[[2-(6-METHOXYPYRIDIN-3-YL)PHENYL]-METHYL]-4-OXO-1,4-AZAPHOSPHINANE-3-CARBOXYLIC ACID]	76	91
CC(C)c1ccccc1CN1CCP(=O)(O)C(CCCCN)(C(=O)O)C1 (centres unmarked) [Example 174, 3-(4-AMINOBUTYL)-4-HYDROXY-4-OXO-1-[(2-PROPAN-2-YLPHENYL)METHYL]-1,4-AZAPHOSPHINANE-3-CARBOXYLIC ACID]	43	51
NCCCCC1(C(=O)O)CN(Cc2ccccc2-c2ccc(Cl)c(Cl)c2)CCP1(=O)O (centres unmarked) [Example 175, 3-(4-AMINOBUTYL)-1-[[2-(3,4-DICHLOROPHENYL)PHENYL]METHYL]-4-HYDROXY-4-OXO-1,4-AZAPHOSPHINANE-3-CARBOXYLIC ACID]	55	77
NCCCC[C@@]1(C(=O)O)CN(Cc2ccccc2-c2cncnc2)CCP1(=O)O [Example 182, (3S)-3-(4-AMINOBUTYL)-4-HYDROXY-4-OXO-1-[(2-PYRIMIDIN-5-YLPHENYL)-METHYL]-1,4-AZAPHOSPHINANE-3-CARBOXYLIC ACID]	81	95
NCCCC[C@@]1(C(=O)O)CN(Cc2ccccc2-c2cccnc2)CCP1(=O)O [Example 184, (3S)-3-(4-AMINOBUTYL)-4-HYDROXY-4-OXO-1-[(2-PYRIDIN-3-YLPHENYL)-METHYL]-1,4-AZAPHOSPHINANE-3-CARBOXYLIC ACID]	67	95
Cc1ccc(-c2ccccc2CN2CCP(=O)(O)[C@](CCCCN)(C(=O)O)C2)cc1 [Example 188, (3S)-3-(4-AMINOBUTYL)-4-HYDROXY-1-[[2-(4-METHYLPHENYL)PHENYL]-METHYL]-4-OXO-1,4-AZAPHOSPHINANE-3-CARBOXYLIC ACID]	64	86
